These results are taken from PMC7761982, “FDA-Approved Drugs with Potent In Vitro Antiviral Activity against Severe Acute Respiratory Syndrome Coronavirus 2” (Pharmaceuticals, 2020).

Counter-ions that a name gives are not always drawn. Like-named read-outs stand apart in the source and are kept apart here.

One data set relates to NRC-03-nhCoV. Put plainly: microbe, parasite or virus in culture. The class given is cell-based, SARS-CoV-2.
A short description of the next data set: in vitro. As to conditions: African green monkey, CC50 (Vero-E6).
Where [1] appears, read: Vero-E6 cells, 72 h, crystal violet, reduction of virus-induced CPE by 50%, read-out: IC50 (NRC-03-nhCoV).
Where [2] appears, read: read-out: CC50 (Vero-E6), half maximal cytotoxic concentration, MTT assay, Vero-E6 cells.
[3] abbreviates: Severe acute respiratory syndrome coronavirus 2, Vero C1008, 72 h, Vero-E6 cells, 72 h, crystal violet, reduction of virus-induced CPE by 50%, read-out: IC50 (NRC-03-nhCoV).
Setting [4] is: half maximal cytotoxic concentration, MTT assay, Vero-E6 cells.
[5] abbreviates: Severe acute respiratory syndrome coronavirus 2, Vero C1008, Vero-E6 cells, 72 h, crystal violet, reduction of virus-induced CPE by 50%, read-out: IC50 (NRC-03-nhCoV).
[6] abbreviates: Severe acute respiratory syndrome coronavirus 2, Vero C1008, negative log of the IC50 value against SARS-CoV-2, read-out: pIC50 (converted).

Turning to `COc1ccc(C[C@@H](C)NC[C@H](O)c2ccc(O)c(NC=O)c2)cc1` [Formoterol Fumarate], the IC50 with NRC-03-nhCoV (setting [1]) amounted to 71.8 µM. Besides, the CC50 with Vero-E6 cells is 569 µM.

Take `CC1(C)S[C@@H]2[C@H](NC(=O)Cc3ccccc3)C(=O)N2[C@H]1C(=O)O` [Benzathine penicillin]: the IC50 in the data set with NRC-03-nhCoV (setting [1]) came out at 15.8 µM. The CC50 in the data set on Vero-E6 cells (setting [2]) turned out to be 728 µM.

Consider `c1ccc2c(CC3=NCCN3)cccc2c1` [Naphazoline], for which the IC50 with NRC-03-nhCoV (setting [3]) turned out to be 9.52 µM. In the data set “in vitro” (setting [4]), this compound displayed a CC50 of 636 µM.

In the case of `NCC[C@H](O)C(=O)N[C@@H]1C[C@H](N)[C@@H](O[C@H]2O[C@H](CN)[C@@H](O)[C@H](O)[C@H]2O)[C@H](O)[C@H]1O[C@H]1O[C@H](CO)[C@@H](O)[C@H](N)[C@H]1O` [Amikacin sulphate], in the data set with NRC-03-nhCoV (setting [1]), the IC50 came out at 16.8 µM. The CC50 in the data set on Vero-E6 cells (setting [2]) worked out at 2460 µM.

For the compound `CC(C)C(=O)OCC(=O)[C@@]12O[C@H](C3CCCCC3)O[C@@H]1C[C@H]1[C@@H]3CCC4=CC(=O)C=C[C@]4(C)[C@H]3[C@@H](O)C[C@@]12C` [Ciclesonide], the IC50 with NRC-03-nhCoV (setting [3]) is 4.2 µM. The same compound registered a CC50 in the data set “in vitro” (setting [4]) of 120 µM.

For `C[C@H]1C[C@@H]2[C@H]([C@@H](O)C[C@@]3(C)[C@H]2CC[C@]3(O)C(=O)CO)[C@@]2(C)C=CC(=O)C=C12` [Methylprednisolone], the IC50 in the data set on NRC-03-nhCoV (setting [3]) is 90.4 µM. In “in vitro” (setting [4]), this compound showed a CC50 of 3340 µM.

In the case of `C[C@]12CCC(=O)C=C1CC[C@@H]1[C@@H]2[C@@H](O)C[C@@]2(C)[C@H]1CC[C@]2(O)C(=O)CO` [Hydrocortisone], the IC50 with NRC-03-nhCoV (setting [3]) is 7.1 µM. The compound also came in with a CC50 in “in vitro” (setting [4]) of 614 µM.

In the case of `C[C@H]1COc2c(N3CCN(C)CC3)c(F)cc3c(=O)c(C(=O)O)cn1c23` [Levofloxacin], the IC50 in the data set with NRC-03-nhCoV (setting [3]) was determined as 13.8 µM. In “in vitro” (setting [4]), this compound returned a CC50 of 2160 µM.

Regarding `Cc1cnc(NC(=O)C2=C(O)c3ccccc3S(=O)(=O)N2C)s1` [Meloxicam], the IC50 in the data set on NRC-03-nhCoV (setting [3]) stood at 12.4 µM. Moreover, the CC50 in the data set “in vitro” (setting [4]) came to 262 µM.

For `O=C(O)Cc1ccccc1Nc1c(Cl)cccc1Cl` [Diclofenac sodium], the IC50 in the data set on NRC-03-nhCoV (setting [3]) was 96.2 µM. For the same compound, the CC50 in the data set “in vitro” (setting [4]) amounted to 138 µM.

Regarding `CCC(=O)O[C@]1(C(=O)SCF)[C@H](C)C[C@H]2[C@@H]3C[C@H](F)C4=CC(=O)C=C[C@]4(C)[C@@]3(F)[C@@H](O)C[C@@]21C` [Fluticasone Propionate], in the data set with NRC-03-nhCoV (setting [3]), the IC50 was determined as 1.71 µM. In the data set “in vitro” (setting [4]), the CC50 was determined as 32 µM.

As to `O=C(c1ccccc1)c1ccc2n1CCC2C(=O)O` (stereo not drawn) [Ketorolac Tromethamine], in the data set on NRC-03-nhCoV (setting [3]), the IC50 is 153 µM. The same compound displayed a CC50 in the data set “in vitro” (setting [4]) of 2040 µM.

Regarding `COc1ccc2c(c1)c(CC(=O)O)c(C)n2C(=O)c1ccc(Cl)cc1` [Indomethacin], the IC50 in the data set on NRC-03-nhCoV (setting [3]) turned out to be 8.51 µM. This compound had a CC50 in the data set “in vitro” (setting [4]) of 672 µM.

Regarding `CO/N=C(\C(=O)N[C@@H]1C(=O)N2C(C(=O)O)=C(CSc3nc(=O)c(=O)[nH]n3C)CS[C@H]12)c1csc(N)n1` [Ceftriaxone], in the data set with NRC-03-nhCoV (setting [5]), the IC50 was found to be 16.1 µM. The CC50 in “in vitro” (setting [4]) was determined as 446 µM.

Turning to `CC1(C)S[C@@H]2[C@H](NC(=O)[C@H](N)c3ccc(O)cc3)C(=O)N2[C@H]1C(=O)O` [Amoxicillin], the IC50 in the data set on NRC-03-nhCoV (setting [3]) worked out at 16.1 µM. In addition, in the data set “in vitro” (setting [4]), the CC50 came out at 615 µM.

Consider `CC(C)Cc1ccc(C(C)C(=O)O)cc1` (stereo not drawn) [Ibuprofen], for which the IC50 with NRC-03-nhCoV (setting [3]) is 88.7 µM. Also, the CC50 in “in vitro” (setting [4]) stood at 1170 µM.

`CCN1CCN(C(=O)N[C@@H](C(=O)N[C@@H]2C(=O)N3C(C(=O)O)=C(CSc4nnnn4C)CS[C@H]23)c2ccc(O)cc2)C(=O)C1=O` [Cefoperazone]: the IC50 with NRC-03-nhCoV (setting [3]) stood at 12.4 µM. The CC50 in the data set “in vitro” (setting [4]) was found to be 69 µM.

`CC(=O)Nc1ccc(O)cc1` [Paracetamol] showed a CC50 in the data set “in vitro” (setting [4]) of 4980 µM.

As to `OCc1cc(C(O)CNCCCCCCOCCCCc2ccccc2)ccc1O` (stereo not drawn) [Salmeterol], the IC50 with NRC-03-nhCoV (setting [5]) was found to be 1.5 µM. The CC50 in the data set “in vitro” (setting [4]) is 4.1 µM.

For `CC(C)(O)c1ccccc1CC[C@@H](SCC1(CC(=O)O)CC1)c1cccc(/C=C/c2ccc3ccc(Cl)cc3n2)c1` [Montelukast], in the data set “in vitro”, the CC50 worked out at 9.86 µM.

In the case of `CC(=O)NC[C@H]1CN(c2ccc(N3CCOCC3)c(F)c2)C(=O)O1` [Linezolid], the IC50 in the data set with NRC-03-nhCoV (setting [3]) stood at 16.3 µM. This compound also returned a CC50 in “in vitro” (setting [4]) of 816 µM.

As to `CC(=O)Oc1ccccc1C(=O)O` [Acetyl Salicylic acid “Aspirin”, Acetyl Salicylic acid], the IC50 in the data set with NRC-03-nhCoV (setting [3]) was 12.2 µM. Besides, the CC50 in the data set “in vitro” (setting [4]) was determined as 1260 µM.

With `Cc1onc(-c2c(F)cccc2Cl)c1C(=O)N[C@@H]1C(=O)N2[C@@H]1SC(C)(C)[C@@H]2C(=O)O` [Flucloxacillin], the IC50 in the data set with NRC-03-nhCoV (setting [3]) stood at 158 µM. In the data set “in vitro” (setting [4]), this compound displayed a CC50 of 966 µM.

In the case of `O=C1CN(/N=C/c2ccc([N+](=O)[O-])o2)C(=O)N1` [Nitrofurantoin], the IC50 in the data set with NRC-03-nhCoV (Severe acute respiratory syndrome coronavirus 2, Vero C1008, 72 h, read-out: IC50 (NRC-03-nhCoV)) amounted to 16.2 µM. In “in vitro”, this compound yielded a CC50 of 599 µM.

With `CCC[C@@H]1C[C@@H](C(=O)N[C@@H]([C@H]2O[C@H](SC)[C@H](O)[C@@H](O)[C@H]2O)[C@H](C)Cl)N(C)C1` [Clindamycin], the IC50 in the data set on NRC-03-nhCoV (setting [3]) and in the data set on NRC-03-nhCoV (setting [1]) was 15.7 µM each time.

Regarding `O=C(N[C@H](CO)[C@H](O)c1ccc([N+](=O)[O-])cc1)C(Cl)Cl` [Chloramphenicol], in the data set with NRC-03-nhCoV (setting [3]), the IC50 is 16.9 µM. Further, the CC50 in the data set on Vero-E6 cells (setting [2]) and in the data set “in vitro” (setting [4]) was 33.9 µM throughout.

In the case of `Cc1ccc(-c2cc(C(F)(F)F)nn2-c2ccc(S(N)(=O)=O)cc2)cc1` [Celecoxib], the IC50 with NRC-03-nhCoV (setting [3]) was 13 µM; in the data set with NRC-03-nhCoV (setting [6]) it was 12.9 µM. The CC50 in the data set “in vitro” (setting [4]) was 140 µM.

Consider `C[C@@H]1C[C@H]2[C@@H]3CCC4=CC(=O)C=C[C@]4(C)[C@@]3(F)[C@@H](O)C[C@]2(C)[C@@]1(O)C(=O)CO` [Dexamethasone], for which the IC50 in the data set with NRC-03-nhCoV (setting [3]) amounted to 123 µM. In “in vitro” (setting [4]), this compound displayed a CC50 of 1900 µM.

In the case of `CC1=C(C(=O)O)N2C(=O)[C@@H](NC(=O)[C@H](N)c3ccccc3)[C@H]2SC1` [Cephalexin], the IC50 in the data set with NRC-03-nhCoV (setting [3]) came out at 13.2 µM.

Take `COc1c(N2C[C@@H]3CCCN[C@@H]3C2)c(F)cc2c(=O)c(C(=O)O)cn(C3CC3)c12` [Moxifloxacin]: the IC50 in the data set with NRC-03-nhCoV (setting [3]) came to 12.2 µM. The same compound gave a CC50 in the data set “in vitro” (setting [4]) of 2240 µM.

Take `CN(C)CCC(c1ccc(Cl)cc1)c1ccccn1` (stereo not drawn) [Chlorpheniramine maleate]: the IC50 in the data set with NRC-03-nhCoV (setting [3]) is 3.6 µM. The same compound displayed a CC50 in “in vitro” (setting [4]) of 466 µM.

Consider `CC(C)(O/N=C(\C(=O)N[C@@H]1C(=O)N2C(C(=O)[O-])=C(C[n+]3ccccc3)CS[C@H]12)c1csc(N)n1)C(=O)O` [Ceftazidime], for which the IC50 in the data set on NRC-03-nhCoV (setting [3]) was found to be 46.1 µM. Also, in “in vitro” (setting [4]), the CC50 was found to be 5550 µM.

As to `C[C@H]1c2cccc(O)c2C(=O)C2=C(O)[C@]3(O)C(=O)C(C(N)=O)=C(O)[C@@H](N(C)C)[C@@H]3[C@@H](O)[C@@H]21` [Doxycycline], the IC50 is 5.1 µM with NRC-03-nhCoV (setting [3]) and 5.13 µM in the data set on NRC-03-nhCoV (setting [6]). The compound also yielded a CC50 in “in vitro” (setting [4]) of 636 µM.

Consider `CN1C(C(=O)Nc2ccccn2)=C(O)c2ccccc2S1(=O)=O` [Piroxicam], for which the IC50 in the data set with NRC-03-nhCoV (setting [3]) was 8.21 µM; with NRC-03-nhCoV (setting [6]), 8.13 µM. This compound had a CC50 in “in vitro” (setting [4]) of 1800 µM.

With `O=C(O)c1cn(C2CC2)c2cc(N3CCNCC3)c(F)cc2c1=O` [Ciprofloxacin], the IC50 with NRC-03-nhCoV (setting [3]) stood at 61.6 µM.

For `C[C@@H]1[C@H](O)[C@@H](C)/C=C/C=C/CC/C=C/C=C/C=C/C=C/C(O[C@H]2O[C@H](C)[C@@H](O)[C@H](N)[C@@H]2O)CC2O[C@](O)(CC(O)C(O)CCC(O)CC(O)CC(O)CC(=O)O[C@H]1C)CC(O)C2C(=O)O` (stereo partly drawn) [Nystatin], the IC50 in the data set on NRC-03-nhCoV (setting [1]) was 161 µM. The CC50 in the data set with Vero-E6 cells (setting [2]) came to 183 µM.

As for Neomycin, the IC50 in the data set with NRC-03-nhCoV (setting [1]) was 18.1 µM. For the same compound, the CC50 in the data set on Vero-E6 cells (setting [2]) came out at 833 µM.

As for `CO/N=C(\C(=O)N[C@@H]1C(=O)N2C(C(=O)O)=C(COC(C)=O)CS[C@H]12)c1csc(N)n1` [Cefotaxime], the IC50 with NRC-03-nhCoV (setting [3]) amounted to 42.7 µM. The compound also yielded a CC50 in “in vitro” (setting [4]) of 3160 µM.

Take `Cc1c(N(C)CS(=O)(=O)O)c(=O)n(-c2ccccc2)n1C` [Metamizole sodium]: the IC50 with NRC-03-nhCoV (setting [1]) was found to be 15 µM. Moreover, the CC50 in the data set with Vero-E6 cells (setting [2]) amounted to 948 µM.
